The text below walks through data of patent US20230121926A1, “METHODS FOR TISSUE REGENERATION AND KITS THEREFOR” (THE BOARD OF TRUSTEES OF THE LELAND STANFORD JUNIOR …, priority 2020, published 2023).

The nature of this series: Systemic penetration of topically applied FAKI (mass spectrometry of peripheral blood). Format: in vivo, pig. The note with it: topical, approximately 7-10% of total body surface area, three pigs. On the procedure:
FIG. 6B. Acute, systemic, and implantation toxicity testing of FAKI hydrogel in the porcine model. Mass spectrometry of peripheral blood samples of FAKI-treated pigs was performed to assess systemic penetration of topically applied FAKI covering approximately 7-10% of the total body surface area relative to serum FAKI levels after oral administration of FAKI from a human study. Serum FAKI concentrations via localized delivery were negligible in three independent experiments collected from three different pigs.

On to `CN(c1ncccc1CNc1nc(Nc2ccc3c(c2)CC(=O)N3)ncc1C(F)(F)F)S(C)(=O)=O` [VS-6062], for which the “serum FAKI concentrations via localized delivery” value is recorded as “negligible”.
